US20250249056A1, “CANCER THERAPIES COMPRISING A NUCLEAR EXPORT INHIBITOR AND AN ONCOLYTIC VIRUS” (priority 2022, published 2025)

Legend:
Colo205 cells = experiment: CyQUANT NF cell proliferation assay (Colo205); format: cell-based, human; conditions: after 24 hours compared to mock treated cells, selinexor 0.1 or 1 μM, multiple MOI
Experimental: Cell Proliferation Assay: To measure cancer cell proliferation based on the amount of cellular DNA, the CyQuant™ NF Cell Proliferation Assay Kit (Invitrogen) was used according to the manufacturer's instructions. Briefly, PANC-1, HT29, MDA-MB435, and Colo205 cells were seeded in a 96-well plate (1×10^4 cells/well) and left to attach to the wells overnight. The next day, the medium was removed and replaced with 50 μL medium containing different concentrations of selinexor (0-1 μM). After an hour of incubation with selinexor, the virus was added to different MOIs (0.5-5), bringing the end volume of every well up to 100 μL. A 1× dye binding solution was prepared by adding 9 μL of the CyQuant™ NF Dye reagent in 4.5 mL Hank's Balanced Salt Solution (HBSS) buffer (Invitrogen). After 24, 48, 72, and 96 hours of incubation, the medium was removed from the cells and 50 μL 1× dye solution was added to all wells. The microplate was covered to protect it from light and was incubated for 30-60 minutes in a 5% CO2 incubator at 37° C. Subsequently, cell proliferation was quantified by measuring fluorescence with an excitation of 485 nm and emission of 530 nm in a VarioSkan Lux Microplate reader (Thermo Fisher). All experiments were performed in quadruple and normalized to mock-treated cells.

[1] = tested on: Lewis lung carcinoma (LLC1) cells; experiment: Lewis lung carcinoma (LLC1) tumor model in immunocompetent C57BL/6 mice; format: in vivo; conditions: single agents; selinexor 15 mg/kg oral; MYXV expressing IL15/IL15Ra (vMyx-IL15Ra) IT 5×10^7 FFU; left and right tumors
Experimental: To verify that the combination of selinexor and MYXV is effective even in mice with a competent immune system, C57BL/6 mice were inoculated with mouse Lewis lung carcinoma (LLC1) cells (FIG. 14A). LLC1 cells were subcutaneously injected on both sides of the flank in C57BL/6 mice. Mice were separated into treatment groups and treated with PBS, selinexor, MYXV expressing IL15/IL15Ra (IT, 5×10^7), or selinexor+MYXV expressing IL15/IL15Ra.
The tumor burden on each flank was measured twice every week.

## O=C(/C=C\n1cnc(-c2cc(C(F)(F)F)cc(C(F)(F)F)c2)n1)NNc1cnccn1 [selinexor]
Colo205 cells
  cell proliferation (DNA content): significant reductions in cell proliferation
[1]
  tumor burden: significantly reduced tumor burden
